Test results from patent publication US4948782A, “A method of promoting the growth of domestic animals with erythromycin derivative containing composition” (Kitasato Kenkyusho, priority 1987, dated 1990).

How the values were obtained:
Assay type in all cases: cell-based
Bacillus cereus IFO 3001 = assay: MIC, Bacillus cereus IFO 3001 (BC); conditions: for MIC: Bacillus cereus, IFO3001, Bacillus cereus IFO 3001, read-out: MIC BC
Bacillus subtilis = assay: MIC, Bacillus subtilis (BS); conditions: for MIC: read-out: MIC BS
Escherichia coli NIHJ = assay: MIC, Escherichia coli NIHJ (EC)
[1] = test system: Klebsiella pneumoniae ATCC 10031; assay: MIC, Klebsiella pneumoniae ATCC 10031 (KP); conditions: Klebsiella pneumoniae ATCC 10031; for MIC: ATCC10031, read-out: MIC KP
[2] = test system: Staphylococcus aureus FDA 209P; assay: MIC, Staphylococcus aureus FDA 209P (SA(2)); conditions: Staphylococcus aureus FDA 209P; for MIC: Staphylococcus aureus, FDA209P, read-out: MIC SA (2)
Text: (§1) The minimum inhibitory concentrations (MIC: mcg/ml) of the erythromycin derivatives of the present invention and the control erythromycin derivative (*) as the known growth promoting agent on typical test bacteria are shown in the following Tables 1 to 5.
SA(2): Staphylococcus aureus FDA 209P

[3] = test system: Staphylococcus aureus ATCC 6538P; assay: MIC, Staphylococcus aureus ATCC 6538P (SA(1)); conditions: Staphylococcus aureus ATCC 6538P; for MIC: Staphylococcus aureus, ATCC6538P, read-out: MIC SA (1)
Text: as §1
SA(1): Staphylococcus aureus ATCC 6538P

Row | Compound | MIC (Bacillus cereus IFO 3001) [mg/L] | MIC (Bacillus subtilis) [mg/L] | MIC (Escherichia coli NIHJ) [mg/L] | MIC [1] [mg/L] | MIC [2] [mg/L] | MIC [3] [mg/L] | MIC BC (Bacillus cereus IFO 3001; Bacillus cereus IFO 3001) [mg/L] | MIC BS (Bacillus subtilis) [mg/L] | MIC EC (Escherichia coli NIHJ) [mg/L] | MIC KP [1] [mg/L] | MIC SA (2) [2] [mg/L] | MIC SA (1) [3] [mg/L]
1 | CCC1OC(=O)C(C)C(OC2CC(C)(OC)C(O)C(C)O2)C(C)C(OC2OC(C)CC(N(C)CCO)C2O)C2(C)CC(C)=C(O2)C(C)C(O)C1(C)O (stereo not drawn) [Compound 37] | > 100 | > 100 | > 100 | > 100 | > 100 | > 100 | – | – | – | – | – | –
2 | C=CCNC1CC(C)OC(OC2C(C)C(OC3CC(C)(OC)C(O)C(C)O3)C(C)C(=O)OC(CC)C(C)(O)C(O)C(C)C3=C(C)CC2(C)O3)C1O (stereo not drawn) [Compound 39] | > 100 | > 100 | > 100 | > 100 | > 100 | > 100 | – | – | – | – | – | –
3 | C#CCNC1CC(C)OC(OC2C(C)C(OC3CC(C)(OC)C(O)C(C)O3)C(C)C(=O)OC(CC)C(C)(O)C(O)C(C)C3=C(C)CC2(C)O3)C1O (stereo not drawn) [Compound 41] | > 100 | > 100 | > 100 | > 100 | > 100 | > 100 | – | – | – | – | – | –
4 | C#CCN(CC=C)C1CC(C)OC(OC2C(C)C(OC3CC(C)(OC)C(O)C(C)O3)C(C)C(=O)OC(CC)C(C)(O)C(O)C(C)C3=C(C)CC2(C)O3)C1O (stereo not drawn) [Compound 42] | > 100 | > 100 | > 100 | > 100 | > 100 | > 100 | – | – | – | – | – | –
5 | C#CC[N+](C)(CC=C)C1CC(C)OC(OC2C(C)C(OC3CC(C)(OC)C(O)C(C)O3)C(C)C(=O)OC(CC)C(C)(O)C(O)C(C)C3=C(C)CC2(C)O3)C1O (stereo not drawn) [Compound 44] | > 100 | > 100 | > 100 | > 100 | 100 | > 100 | – | – | – | – | – | –
6 | C=CC[N+](CC=C)(CC=C)C1CC(C)OC(OC2C(C)C(OC3CC(C)(OC)C(O)C(C)O3)C(C)C(=O)OC(CC)C(C)(O)C(O)C(C)C3=C(C)CC2(C)O3)C1O (stereo not drawn) [Compound 46] | > 100 | > 100 | > 100 | > 100 | > 100 | > 100 | – | – | – | – | – | –
7 | C#CC[N+](CC=C)(CC=C)C1CC(C)OC(OC2C(C)C(OC3CC(C)(OC)C(O)C(C)O3)C(C)C(=O)OC(CC)C(C)(O)C(O)C(C)C3=C(C)CC2(C)O3)C1O (stereo not drawn) [Compound 47] | 50 | 100 | > 100 | > 100 | 100 | 100 | – | – | – | – | – | –
8 | C#CC[N+](CC#C)(CC#C)C1CC(C)OC(OC2C(C)C(OC3CC(C)(OC)C(O)C(C)O3)C(C)C(=O)OC(CC)C(C)(O)C(O)C(C)C3=C(C)CC2(C)O3)C1O (stereo not drawn) [Compound 48] | 100 | 100 | > 100 | > 100 | 100 | 100 | – | – | – | – | – | –
9 | CCCC[N+](C)(C)C1CC(C)OC(OC2C(C)C(OC3CC(C)(OC)C(O)C(C)O3)C(C)C(=O)OC(CC)C(C)(O)C(O)C(C)C3=C(C)CC2(C)O3)C1O (stereo not drawn) [Compound 49] | > 100 | > 100 | > 100 | > 100 | 100 | 100 | – | – | – | – | – | –
10 | C#CC[N+](C)(C)C1CC(C)OC(OC2C(C)C(OC3CC(C)(OC)C(O)C(C)O3)C(C)C(=O)OC(CC)C(C)(O)C(O)C(C)C3=C(C)CC2(C)O3)C1O (stereo not drawn) [Compound 51] | – | – | – | – | – | – | > 100 | > 100 | > 100 | > 100 | > 100 | > 100
11 | CCC1OC(=O)C(C)C(OC2CC(C)(OC)C(O)C(C)O2)C(C)C(OC2OC(C)CC(N(C)CC)C2O)C2(C)CC(C)=C(O2)C(C)C(OC(C)=O)C1(C)OC(C)=O (stereo not drawn) [Compound 53] | > 100 | > 100 | > 100 | > 100 | > 100 | > 100 | – | – | – | – | – | –
12 | CCC1OC(=O)C(C)C(OC2CC(C)(OC)C(O)C(C)O2)C(C)C(OC2OC(C)CC(N(C)CC)C2O)C2(C)CC(C)=C(O2)C(C)C2OC(=O)OC12C (stereo not drawn) [Compound 54] | > 100 | > 100 | > 100 | > 100 | > 100 | > 100 | – | – | – | – | – | –
13 | C#CC[N+](C)(C)C1CC(C)OC(OC2C(C)C(OC3CC(C)(OC)C(O)C(C)O3)C(C)C(=O)OC(CC)C3(C)OC(=O)OC3C(C)C3=C(C)CC2(C)O3)C1O (stereo not drawn) [Compound 57] | 25 | 50 | > 100 | > 100 | 50 | 25 | – | – | – | – | – | –
14 | CC[C@H]1OC(=O)[C@H](C)[C@@H](O[C@H]2C[C@@](C)(OC)[C@@H](OC=O)[C@H](C)O2)[C@H](C)[C@@H](O[C@@H]2O[C@H](C)C[C@H]([N+](C)(C)C)[C@H]2O)[C@@]2(C)CC(C)=C(O2)[C@H](C)[C@@H](O)[C@]1(C)O [Compound 58] | > 100 | > 100 | > 100 | > 100 | > 100 | > 100 | – | – | – | – | – | –
15 | CC[C@H]1OC(=O)[C@H](C)[C@@H](O[C@H]2C[C@@](C)(OC)[C@@H](OC=O)[C@H](C)O2)[C@H](C)[C@@H](O[C@@H]2O[C@H](C)C[C@H]([N+](C)(C)CC)[C@H]2O)[C@@]2(C)CC(C)=C(O2)[C@H](C)[C@@H](O)[C@]1(C)O [Compound 59] | > 100 | > 100 | > 100 | > 100 | > 100 | > 100 | – | – | – | – | – | –
16 | C#CC[N+](C)(C)[C@H]1C[C@@H](C)O[C@@H](O[C@@H]2[C@@H](C)[C@H](O[C@H]3C[C@@](C)(OC)[C@@H](OC=O)[C@H](C)O3)[C@@H](C)C(=O)O[C@H](CC)[C@@](C)(O)[C@H](O)[C@@H](C)C3=C(C)C[C@@]2(C)O3)[C@@H]1O [Compound 60] | > 100 | > 100 | > 100 | > 100 | > 100 | > 100 | – | – | – | – | – | –
17 | CC[C@H]1OC(=O)[C@H](C)[C@@H](O[C@H]2C[C@@](C)(OC)[C@@H](O)[C@H](C)O2)[C@H](C)[C@@H](O[C@@H]2O[C@H](C)C[C@H]([N+](C)(C)CC)[C@H]2O)[C@@]2(C)CC(C)C(O2)[C@H](C)[C@@H](O)[C@]1(C)O (stereo partly drawn) [Compound 63] | > 100 | > 100 | > 100 | > 100 | > 100 | > 100 | – | – | – | – | – | –

Second part, the molecule after the results:

Row | MIC (Bacillus cereus IFO 3001) [mg/L] | MIC (Bacillus subtilis) [mg/L] | MIC (Escherichia coli NIHJ) [mg/L] | MIC [1] [mg/L] | MIC [2] [mg/L] | MIC [3] [mg/L] | MIC BC (Bacillus cereus IFO 3001; Bacillus cereus IFO 3001) [mg/L] | MIC BS (Bacillus subtilis) [mg/L] | MIC EC (Escherichia coli NIHJ) [mg/L] | MIC KP [1] [mg/L] | MIC SA (2) [2] [mg/L] | MIC SA (1) [3] [mg/L] | Compound
18 | > 100 | > 100 | > 100 | > 100 | > 100 | > 100 | – | – | – | – | – | – | C=CCN(CC=C)C1CC(C)OC(OC2C(C)C(OC3CC(C)(OC)C(O)C(C)O3)C(C)C(=O)OC(CC)C(C)(O)C(O)C(C)C3=C(C)CC2(C)O3)C1O (stereo not drawn) [Compound 38]
19 | > 100 | > 100 | > 100 | > 100 | > 100 | > 100 | – | – | – | – | – | – | C#CCN(CC#C)C1CC(C)OC(OC2C(C)C(OC3CC(C)(OC)C(O)C(C)O3)C(C)C(=O)OC(CC)C(C)(O)C(O)C(C)C3=C(C)CC2(C)O3)C1O (stereo not drawn) [Compound 40]
20 | > 100 | > 100 | > 100 | > 100 | 100 | 100 | – | – | – | – | – | – | C=CC[N+](C)(CC=C)C1CC(C)OC(OC2C(C)C(OC3CC(C)(OC)C(O)C(C)O3)C(C)C(=O)OC(CC)C(C)(O)C(O)C(C)C3=C(C)CC2(C)O3)C1O (stereo not drawn) [Compound 43]
21 | > 100 | > 100 | > 100 | > 100 | 100 | 100 | – | – | – | – | – | – | C#CC[N+](C)(CC#C)C1CC(C)OC(OC2C(C)C(OC3CC(C)(OC)C(O)C(C)O3)C(C)C(=O)OC(CC)C(C)(O)C(O)C(C)C3=C(C)CC2(C)O3)C1O (stereo not drawn) [Compound 45]
22 | > 100 | > 100 | > 100 | > 100 | > 100 | > 100 | – | – | – | – | – | – | CCC1OC(=O)C(C)C(OC2CC(C)(OC)C(O)C(C)O2)C(C)C(OC2OC(C)CC(NC)C2O)C2(C)CC(C)=C(O2)C(C)C(OC(C)=O)C1(C)OC(C)=O (stereo not drawn) [Compound 52]
23 | 12.5 | 12.5 | > 100 | > 100 | 12.5 | 12.5 | – | – | – | – | – | – | C#CC[N+](C)(C)C1CC(C)OC(OC2C(C)C(OC3CC(C)(OC)C(O)C(C)O3)C(C)C(=O)OC(CC)C3(C)OC(C)(C)OC3C(C)C3=C(C)CC2(C)O3)C1O (stereo not drawn) [Compound 55]
24 | 100 | 50 | > 100 | > 100 | 100 | 50 | – | – | – | – | – | – | C#CC[N+](C)(C)C1CC(C)OC(OC2C(C)C(OC3CC(C)(OC)C(O)C(C)O3)C(C)C(=O)OC(CC)C3(C)OB(c4ccccc4)OC3C(C)C3=C(C)CC2(C)O3)C1O (stereo not drawn) [Compound 56]
25 | > 100 | > 100 | > 100 | > 100 | > 100 | > 100 | – | – | – | – | – | – | CC[C@H]1OC(=O)[C@H](C)[C@@H](O[C@H]2C[C@@](C)(OC)[C@@H](O)[C@H](C)O2)[C@H](C)[C@@H](O[C@@H]2O[C@H](C)C[C@H]([N+](C)(C)CC)[C@H]2O)[C@@]2(C)CC(C)=C(O2)[C@H](C)[C@@H](O)[C@]1(C)O [Compound 61]
26 | > 100 | > 100 | > 100 | > 100 | > 100 | > 100 | – | – | – | – | – | – | CC[C@H]1OC(=O)[C@H](C)[C@@H](O[C@H]2C[C@@](C)(OC)[C@@H](O)[C@H](C)O2)[C@H](C)[C@@H](O[C@@H]2O[C@H](C)C[C@H]([N+](C)(C)C)[C@H]2O)[C@@]2(C)CC(C)C(O2)[C@H](C)[C@@H](O)[C@]1(C)O (stereo partly drawn) [Compound 62]
